Results as given in ChEMBL document CHEMBL1148887, “Design and synthesis of benzoazepinone-derived cyclic malonamides and aminoamides as potent gamma-secretase inhibitors” (Bioorg Med Chem Lett, 2007).

What was measured:
Gamma-secretase [1] = assay: Inhibition of gamma secretase in APP-transfected CHO cells; type: cell-based, Homo sapiens
Gamma-secretase [2] = assay: Displacement of [3H]succinamide from gamma secretase in THP1 cell membranes; set-up: species or system Homo sapiens; conditions: thp-1
[3] = Fraction unbound ligand in Beagle dog at 0.5 mg/kg, po; type: ADME, organism-based, Canis lupus familiaris; set-up: dose 0.5 mg/kg, route oral; conditions: in vivo
[4] = Clearance in Beagle dog at 0.5 mg/kg, po; type: ADME, organism-based, Canis lupus familiaris; set-up: dose 0.5 mg/kg, route oral; conditions: in vivo
Canis familiaris = assay: Volume of distribution at steady state in Beagle dog at 0.5 mg/kg, po; type: ADME, organism-based, Canis lupus familiaris; set-up: dose 0.5 mg/kg, route oral; conditions: in vivo
[5] = Half life in Beagle dog at 0.5 mg/kg, po; type: ADME, organism-based, Canis lupus familiaris; set-up: dose 0.5 mg/kg, route oral; conditions: in vivo
[6] = Cmax in Beagle dog at 0.5 mg/kg, po; type: ADME, organism-based, Canis lupus familiaris; set-up: dose 0.5 mg/kg, route oral; conditions: in vivo
[7] = Oral bioavailability in Beagle dog at 0.5 mg/kg, po; type: ADME, organism-based, Canis lupus familiaris; conditions: in vivo
Gamma-secretase [8] = assay: Inhibition of gamma secretase-mediated beta amyloid production in NIH3T3 cells; type: cell-based, Homo sapiens

Row | SMILES | IC50 (Gamma-secretase [1]) | Ki (Gamma-secretase [2]) | fraction unbound [3] | CL/F [4] | Vdss (Canis familiaris) | half-life [5] | Cmax [6] | bioavailability [7] | IC50 (Gamma-secretase [8])
1 | CN1C(=O)[C@@H](NC(=O)C2(C(=O)NCc3cc(F)cc(F)c3)CCC2)N=C(c2ccccc2)c2ccccc21 | 0.115 µM | 0.0135 µM |  |  |  |  |  |  | 
2 | CC(C)CCNC(=O)C1(C(=O)N[C@H]2N=C(c3ccc(C(F)(F)F)cc3)c3ccccc3N(C)C2=O)CCC1 | 0.014 µM | 0.0049 µM | 0.005 | 3.33 mL/min/kg | 1.9 L/kg | 13.2 h | 567 nM | 61% | 
3 | CCCCNC(=O)C1(C(=O)N[C@H]2N=C(c3ccccc3)c3ccccc3N(C)C2=O)CCC1 | 0.02 µM | 0.011 µM |  |  |  |  |  |  | 
4 | CC(C)CCNC(=O)C1(C(=O)N[C@@H]2C(=O)N(C)c3ccccc3-c3ccccc32)CCC1 | 0.015 µM | 0.004 µM | 0.005 | 3.33 mL/min/kg | 0.9 L/kg | 5.3 h | 172 nM | 23% | 
5 | CC(C)CNC(=O)C1(C(=O)N[C@@H]2C(=O)N(C)c3ccccc3-c3ccccc32)CCC1 | 0.0058 µM | 0.0014 µM | 0.001 | 8.33 mL/min/kg | 2.1 L/kg | 4.6 h | 184 nM | 47% | 
6 | CC(C)CNC(=O)C1(C(=O)N[C@H]2N=C(c3ccccc3)c3ccccc3N(C)C2=O)CCCC1 | 0.0195 µM | 0.0062 µM |  |  |  |  |  |  | 
7 | CN1C(=O)[C@@H](NC(=O)C2(C(=O)NCCC3CCCC3)CCC2)N=C(c2ccc(C(F)(F)F)cc2)c2ccccc21 | 0.013 µM | 0.0022 µM |  |  |  |  |  |  | 
8 | CC(C)CC(F)(F)NC(=O)C1(C(=O)N[C@@H]2C(=O)N(C)c3ccccc3-c3ccccc32)CCC1 | 0.28 µM | 0.022 µM |  |  |  |  |  |  | 
9 | CC(C)[C@H](O)NC(=O)C1(C(=O)N[C@@H]2C(=O)N(C)c3ccccc3-c3ccccc32)CCC1 | 0.015 µM | 0.0039 µM |  |  |  |  |  |  | 
10 | CC(C)C[C@H](O)NC(=O)C1(C(=O)N[C@H]2N=C(c3ccc(C(F)(F)F)cc3)c3ccccc3N(C)C2=O)CCC1 | 0.0061 µM | 0.0021 µM | 0.017 | 0.667 mL/min/kg | 0.2 L/kg | 6.5 h | 2980 nM | 84% | 0.0061 µM
11 | CC(C)C[C@H](O)NC(=O)C1(C(=O)N[C@@H]2C(=O)N(C)c3ccccc3-c3ccccc32)CCC1 | 0.0042 µM | 0.0009 µM |  |  |  |  |  |  | 
12 | CN1C(=O)[C@@H](NC(=O)C2(C(=O)NCCC3CCCC3)CCCC2)N=C(c2ccccc2)c2ccccc21 |  | 0.036 µM |  |  |  |  |  |  | 
13 | CN1C(=O)[C@@H](NC(=O)C2(C(=O)NCc3cc(F)cc(F)c3)CCCC2)N=C(c2ccccc2)c2ccccc21 | 0.096 µM | 0.0099 µM |  |  |  |  |  |  | 
14 | CN1C(=O)[C@@H](NC(=O)C2(C(=O)N[C@H](O)C3CCCCC3)CCC2)N=C(c2ccc(C(F)(F)F)cc2)c2ccccc21 | 0.28 µM | 0.111 µM |  |  |  |  |  |  | 
15 | CN1C(=O)[C@@H](NC(=O)C2(C(=O)N[C@@H](O)C3CCCCC3)CCC2)N=C(c2ccc(C(F)(F)F)cc2)c2ccccc21 | 0.011 µM | 0.0031 µM |  |  |  |  |  |  | 
16 | CN1C(=O)[C@@H](NC(=O)C2(C(=O)NCc3cccs3)CCCC2)N=C(c2ccccc2)c2ccccc21 | 0.019 µM | 0.041 µM |  |  |  |  |  |  | 
17 | CCCNC(=O)C(CC)(CC)C(=O)N[C@H]1N=C(c2ccccc2)c2ccccc2N(C)C1=O |  | 0.227 µM |  |  |  |  |  |  | 
18 | CC(C)[C@H](O)NC(=O)C1(C(=O)N[C@H]2N=C(c3ccc(C(F)(F)F)cc3)c3ccccc3N(C)C2=O)CCC1 | 0.0067 µM | 0.0011 µM |  |  |  |  |  |  | 
19 | CCCNC(=O)C1(C(=O)N[C@H]2N=C(c3ccccc3)c3ccccc3N(C)C2=O)CCC1 | 0.082 µM | 0.015 µM |  |  |  |  |  |  | 
20 | CC(C)CNC(=O)C1(C(=O)N[C@H]2N=C(c3ccc(C(F)(F)F)cc3)c3ccccc3N(C)C2=O)CCC1 | 0.028 µM | 0.0012 µM |  |  |  |  |  |  | 
21 | CC(C)CNC(=O)C1(C(=O)N[C@@H]2C(=O)N(C)c3ccccc3-c3ccccc32)CCCC1 | 0.0261 µM | 0.003 µM |  |  |  |  |  |  | 
22 | CCNC(=O)C(CC)(CC)C(=O)N[C@H]1N=C(c2ccccc2)c2ccccc2N(C)C1=O |  | 1 µM |  |  |  |  |  |  | 
23 | CC(C)CNC(=O)C1(C(=O)N[C@H]2N=C(c3ccc(C(F)(F)F)cc3)c3ccccc3N(C)C2=O)CCCC1 | 0.0125 µM | 0.002 µM |  |  |  |  |  |  | 
24 | CC(C)CNC(=O)C1(C(=O)N[C@H]2N=C(c3ccccc3)c3ccccc3N(C)C2=O)CCC1 | 0.021 µM | 0.0035 µM | 0.004 | 21.7 mL/min/kg | 3.1 L/kg | 5.3 h | 84 nM | 42% | 
25 | CN1C(=O)[C@@H](NC(=O)C2(C(=O)NCCC3CCCC3)CCC2)c2ccccc2-c2ccccc21 | 0.021 µM | 0.0013 µM | 0.002 | 5 mL/min/kg | 2.9 L/kg | 13.4 h | 365 nM | 71% | 
